Measured values reported in patent US11142515B2, “Pyrazolyl-ureas as kinase inhibitors” (RESPIVERT LIMITED, priority 2014, dated 2021).

Legend:
[1] = molecular target: T1, p38 MAPKα isoform (MAPK14) (Homo sapiens, UniProt Q16539); assay: p38 MAPKα enzyme inhibition (Z-LYTE FRET); format: biochemical; settings: Table 2B, unit inferred; read-out: p38 MAPKα (Enzyme Profile)
T1 construct: purchased Life Technologies
Method in brief: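 Activity was measured indirectly as phosphorylation of a MAPKAP-K2-derived FRET peptide. Enzyme (added at 40 ng/mL) was preincubated 2 h at RT with compound (added solutions 40–0.0012 μg/mL).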

[2] = molecular target: T2, p38MAPKγ (MAPK12) (Homo sapiens, UniProt P53778); assay: p38 MAPKγ enzyme inhibition (Z-LYTE FRET); format: biochemical; settings: Table 2B, unit inferred; read-out: p38 MAPKγ (Enzyme Profile)
T2 construct: purchased Life Technologies
T2 sequence (P53778 1-367): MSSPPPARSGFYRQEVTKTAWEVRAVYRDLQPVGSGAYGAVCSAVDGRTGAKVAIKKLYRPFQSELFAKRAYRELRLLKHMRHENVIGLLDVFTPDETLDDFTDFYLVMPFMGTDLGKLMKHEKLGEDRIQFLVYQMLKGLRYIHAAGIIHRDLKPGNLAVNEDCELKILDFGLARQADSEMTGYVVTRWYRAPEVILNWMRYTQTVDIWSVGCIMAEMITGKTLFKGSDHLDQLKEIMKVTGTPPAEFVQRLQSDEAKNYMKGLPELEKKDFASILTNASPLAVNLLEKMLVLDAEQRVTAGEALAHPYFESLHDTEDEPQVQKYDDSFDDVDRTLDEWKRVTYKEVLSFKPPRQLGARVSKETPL
Method in brief: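 Enzyme (added at 800 ng/mL) was preincubated 2 h at RT with compound (solutions of 40 to 0.0012 μg/mL), then FRET peptide (8 μM) and ATP (400 μM), both as added, were reacted 1 h at RT. Protease development followed for 1 h; phosphorylation was read as the coumarin/fluorescein emission ratio.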

T1 sequence (Q16539 whole entry, canonical isoform): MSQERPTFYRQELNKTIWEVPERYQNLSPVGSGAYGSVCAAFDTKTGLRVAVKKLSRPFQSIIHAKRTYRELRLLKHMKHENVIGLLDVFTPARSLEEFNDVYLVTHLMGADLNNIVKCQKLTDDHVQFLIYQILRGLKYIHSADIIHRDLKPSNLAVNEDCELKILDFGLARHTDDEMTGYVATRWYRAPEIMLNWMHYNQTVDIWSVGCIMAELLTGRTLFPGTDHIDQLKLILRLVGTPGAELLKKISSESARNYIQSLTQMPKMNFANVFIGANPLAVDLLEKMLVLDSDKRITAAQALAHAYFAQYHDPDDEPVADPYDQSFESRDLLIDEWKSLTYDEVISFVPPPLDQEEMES

SMILES	IC50 [1] [nM]	IC50 [2] [nM]
COCC1CN(C(=O)c2cnc(Nc3cc(COc4ccc(NC(=O)Nc5cc(C(C)(C)C)nn5-c5ccc(C)cc5)c5ccccc45)ccn3)cn2)C1 [Example 225, 1-(3-(tert-butyl)-1-(p-tolyl)-1H-pyrazol-5-yl)-3-(4-((2-((5-(3-(methoxymethyl)azetidine-l-carbonyl)pyrazin-2-yl)amino)pyridin-4-yl)methoxy)naphthalen-1-yl)urea]	14	342
Cc1ccc(-n2nc(C(C)(C)C)cc2NC(=O)Nc2ccc(OCc3ccnc(Nc4cnc5c(n4)CCCC5)c3)c3ccccc23)cc1 [Example 138, 1-(3-(tert-butyl)-1-(p-tolyl)-1H-pyrazol-5-yl)-3-(4-((2-((5,6,7,8-tetrahydro-quinoxalin-2-yl)amino)pyridin-4-yl)methoxy)naphthalen-1-yl)urea]	29	> 15300
CCc1cncc(Nc2cc(COc3ccc(NC(=O)Nc4cc(C(C)(C)C)nn4-c4cccc(F)c4)c4ccccc34)ccn2)n1 [Example 62]	24	560
Cc1ccc(-n2nc(C(C)(C)C)cc2NC(=O)Nc2ccc(OCc3ccnc(Nc4cncc(CCCO)n4)c3)c3ccccc23)cc1 [Example 155, 1-(3-(tert-butyl)-1-(p-tolyl)-1H-pyrazol-5-yl)-3-(4-((2-((6-(3-hydroxypropyl)pyrazin-2-yl)amino)pyridin-4-yl)methoxy)naphthalen-1-yl)urea]	8.9	31
COCCNC(=O)c1cnc(Nc2cc(COc3ccc(NC(=O)Nc4cc(C(C)(C)C)nn4-c4ccc(OC)c(C)c4)c4ccccc34)ccn2)cn1 [Example 132, 5-((4-(((4-(3-(3-(tert-butyl)-1-(4-methoxy-3-methyl-phenyl)-1H-pyrazol-5-yl)ureido)naphthalen-1-yl)oxy)methyl)pyridin-2-yl)amino)-N-(2-methoxyethyl)pyrazine-2-carboxamide]	11	> 13700
Cc1ncc(Nc2cc(COc3ccc(NC(=O)Nc4cc(C(C)(C)C)nn4-c4cccc(F)c4)c4ccccc34)ccn2)nc1C [Example 169, 1-(3-(tert-butyl)-1-(3-fluorophenyl)-1H-pyrazol-5-yl)-3-(4-((2-((5,6-dimethylpyrazin-2-yl)amino)pyridin-4-yl)methoxy)naphthalen-1-yl)urea]	26	449
CCc1cncc(Nc2cc(COc3ccc(NC(=O)Nc4cc(C(C)(C)C)nn4-c4cccc(Cl)c4)c4ccccc34)ccn2)n1 [Example 175, 1-(3-(tert-butyl)-1-(3-chlorophenyl)-1H-pyrazol-5-yl)-3-(4-((2-((6-ethylpyrazin-2-yl)amino)pyridin-4-yl)methoxy)naphthalen-1-yl)urea]	38	> 15500
Cc1ccc(-n2nc(C(C)(C)C)cc2NC(=O)Nc2ccc(OCc3ccnc(Nc4cnc(C(=O)NC5CCN(C)CC5)cn4)c3)c3ccccc23)cc1 [Example 80]	< 0.41	54
CCc1cncc(Nc2cc(COc3ccc(NC(=O)Nc4cc(C(C)(C)C)nn4-c4ccc(OC)c(C)c4)c4ccccc34)ccn2)n1 [Example 140, 1-(3-(tert-butyl)-1-(4-methoxy-3-methylphenyl)-1H-pyrazol-5-yl)-3-(4-((2-((6-ethylpyrazin-2-yl)amino)pyridin-4-yl)methoxy)naphthalen-1-yl)urea]	29	> 15200
CCc1cccc(-n2nc(C(C)(C)C)cc2NC(=O)Nc2ccc(OCc3ccnc(Nc4cnc(C(=O)N5CCCC5)cn4)c3)c3ccccc23)c1 [Example 230, 1-(3-(tert-butyl)-1-(3-ethyl-phenyl)-1H-pyrazol-5-yl)-3-(4-((2-((5-(pyrrolidine-1-carbonyl)pyrazin-2-yl)amino)pyridin-4-yl)methoxy)naphthalen-1-yl)urea]	43	> 14100
COc1cncc(Nc2cc(COc3ccc(NC(=O)Nc4cc(C(C)(C)C)nn4-c4ccc(CO)cc4)c4ccccc34)ccn2)n1 [Example 110, 1-(3-(tert-butyl)-1-(4-(hydroxymethyl)phenyl)-1H-pyrazol-5-yl)-3-(4-((2-((6-methoxypyrazin-2-yl)amino)pyridin-4-yl)methoxy)naphthalen-1-yl) urea]	1.6	23
COCCN(CCOC)C(=O)c1cnc(Nc2cc(COc3ccc(NC(=O)Nc4cc(C(C)(C)C)nn4-c4ccc(C)cc4)c4ccccc34)ccn2)cn1 [Example 73]	19	259
Cc1ccc(-n2nc(C(C)(C)C)cc2NC(=O)Nc2ccc(OCc3ccnc(Nc4cnccn4)c3)c3ccccc23)cc1F [Example 59]	18	105
CCc1cncc(Nc2cc(COc3ccc(NC(=O)Nc4cc(C(C)(C)C)nn4-c4ccc(C)c(C)c4)c4ccccc34)ccn2)n1 [Example 144, 1-(3-(tert-butyl)-1-(3,4-dimethylphenyl)-1H-pyrazol-5-yl)-3-(4-((2-((6-ethylpyrazin-2-yl)amino)pyridin-4-yl)methoxy)naphthalen-1-yl)urea]	63	518

Next, values leading:

IC50 [1] [nM]	IC50 [2] [nM]	SMILES
4.5	66	COCc1cccc(-n2nc(C(C)(C)C)cc2NC(=O)Nc2ccc(OCc3ccnc(Nc4cnc(C(=O)NCCN5CCOCC5)cn4)c3)c3ccccc23)c1 [Example 270, 5-((4-(((4-(3-(3-(tert-butyl)-1-(3-(methoxymethyl)phenyl)-1H-pyrazol-5-yl)ureido)naphthalen-1-yl)oxy)methyl)pyridin-2-yl)amino)-N-(2-morpholinoethyl) pyrazine-2-carboxamide]
11	57	Cc1cc(-n2nc(C(C)(C)C)cc2NC(=O)Nc2ccc(OCc3ccnc(Nc4cnccn4)c3)c3ccccc23)ccn1 [Example 265, 1-(3-(tert-butyl)-1-(2-methyl-pyridin-4-yl)-1H-pyrazol-5-yl)-3-(4-((2-(pyrazin-2-ylamino)pyridin-4-yl)methoxy)naphthalen-1-yl) urea]
12	68	COCCc1cccc(-n2nc(C(C)(C)C)cc2NC(=O)Nc2ccc(OCc3ccnc(Nc4cnccn4)c3)c3ccccc23)c1 [Example 257, 1-(3-(tert-butyl)-1-(3-(2-methoxyethyl)phenyl)-1H-pyrazol-5-yl)-3-(4-((2-(pyrazin-2-ylamino)pyridin-4-yl)methoxy)naphthalen-1-yl)urea]
15	95	Cc1cccc(-n2nc(C(C)(C)C)cc2NC(=O)Nc2ccc(OCc3ccnc(Nc4cnc(C(=O)NCCCO)cn4)c3)c3ccccc23)c1 [Example 231, 5-((4-(((4-(3-(3-(tert-butyl)-1-(m-tolyl)-1H-pyrazol-5-yl)ureido)naphthalen-1-yl)oxy)methyl)pyridin-2-yl)amino)-N-(3-hydroxypropyl) pyrazine-2-carboxamide]
65	> 14000	Cc1ccc(-n2nc(C(C)(C)C)cc2NC(=O)Nc2ccc(OCc3ccnc(Nc4cnc(C(=O)N5CCCC5)cn4)c3)c3ccccc23)cc1F [Example 235, 1-(3-(tert-butyl)-1-(3-fluoro-4-methylphenyl)-1H-pyrazol-5-yl)-3-(4-((2-((5-(pyrrolidine-1-carbonyl)pyrazin-2-yl)amino)pyridin-4-yl)methoxy)naphthalen-1-yl)urea]
64	> 15600	CCc1cccc(-n2nc(C(C)(C)C)cc2NC(=O)Nc2ccc(OCc3ccnc(Nc4cncc(CC)n4)c3)c3ccccc23)c1 [Example 234, 1-(3-(tert-butyl)-1-(3-ethyl-phenyl)-1H-pyrazol-5-yl)-3-(4-((2-((6-ethylpyrazin-2-yl)amino)pyridin-4-yl)methoxy)naphthalen-1-yl)urea]
